Columns and labels:
[1] = target: Human norepinephrine transporter (NET) (Homo sapiens, UniProt P23975); assay: Binding assay to human norepinephrine transporter (NET); conditions: expressed as Ki; [3H]-Nisoxetin, human NET enriched membranes
Experimental: Binding Assay to Human Norepinephrine Transporter (NET).
Human norepinephrine transporter (NET) enriched membranes (5 μg) were incubated with 5 nM of radiolabeled [3H]-Nisoxetin in assay buffer containing 50 mM Tris-HCl, 120 mM NaCl, 5 mM KCl, pH 7.4.
(§1) NSB (non specific binding) was measured by adding 10 μM of desipramine. The binding of the test compound was measured at five different concentrations. After 60 min incubation at 4° C., binding reaction was terminated by filtering through Multiscreen GF/C (Millipore) presoaked in 0.5% polyethyleneimine in Vacuum Manifold Station, followed by 3 washes with ice-cold filtration buffer containing 50 mM Tris-HCl, 0.9% NaCl, pH 7.4.
Filter plates were dried at 60° C. for 1 hour and 30 μL of scintillation cocktail were added to each well before radioactivity reading.
Readings were performed in a Trilux 1450 Microbeta radioactive counter (Perkin Elmer).

[2] = target: Human α2δ−1 subunit of Cav2.2 calcium channel (Homo sapiens, UniProt P54289); assay: Human α2δ−1 subunit of Cav2.2 calcium channel assay; conditions: expressed as Ki; [3H]-Gabapentin, human α2δ−1 enriched membranes; read-out: Binding α2δ-1
Human α2δ−1 subunit of Cav2.2 calcium channel, sequence (P54289 25-1103): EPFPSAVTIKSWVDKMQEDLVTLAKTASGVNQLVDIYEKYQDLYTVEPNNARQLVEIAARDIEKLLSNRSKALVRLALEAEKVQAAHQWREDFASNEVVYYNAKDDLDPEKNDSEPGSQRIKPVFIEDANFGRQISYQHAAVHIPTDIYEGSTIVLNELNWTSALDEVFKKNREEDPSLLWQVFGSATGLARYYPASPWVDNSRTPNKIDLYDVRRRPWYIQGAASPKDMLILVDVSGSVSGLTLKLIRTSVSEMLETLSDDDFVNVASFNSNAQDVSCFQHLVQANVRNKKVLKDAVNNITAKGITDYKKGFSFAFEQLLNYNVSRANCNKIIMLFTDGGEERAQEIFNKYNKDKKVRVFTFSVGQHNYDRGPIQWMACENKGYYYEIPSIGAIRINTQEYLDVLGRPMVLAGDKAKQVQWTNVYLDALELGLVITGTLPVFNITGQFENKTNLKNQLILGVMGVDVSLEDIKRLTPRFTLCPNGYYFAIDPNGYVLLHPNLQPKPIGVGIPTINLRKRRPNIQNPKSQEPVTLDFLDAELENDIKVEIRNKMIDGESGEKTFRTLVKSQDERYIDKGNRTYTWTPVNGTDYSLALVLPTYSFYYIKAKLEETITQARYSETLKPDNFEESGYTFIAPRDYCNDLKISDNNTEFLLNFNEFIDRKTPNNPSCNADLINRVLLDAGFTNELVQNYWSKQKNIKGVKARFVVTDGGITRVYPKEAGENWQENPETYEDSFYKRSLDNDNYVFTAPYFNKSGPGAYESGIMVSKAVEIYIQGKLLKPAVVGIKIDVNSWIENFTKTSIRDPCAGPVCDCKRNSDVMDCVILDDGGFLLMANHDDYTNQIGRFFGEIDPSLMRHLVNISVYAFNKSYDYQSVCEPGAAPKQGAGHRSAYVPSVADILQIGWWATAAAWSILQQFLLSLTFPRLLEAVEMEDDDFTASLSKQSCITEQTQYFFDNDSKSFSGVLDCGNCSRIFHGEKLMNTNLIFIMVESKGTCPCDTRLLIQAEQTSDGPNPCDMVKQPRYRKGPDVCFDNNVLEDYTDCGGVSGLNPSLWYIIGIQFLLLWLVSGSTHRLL
Experimental: as §1, with “Human α2δ−1 Subunit of Cav2.2 Calcium Channel Assay Human α2δ−1 enriched membranes (2.5 μg) were incubated with 15 nM of radiolabeled [3H]-Gabapentin in assay buffer containing Hepes-KOH 10 mM, pH 7.4. NSB” for “NSB”, “pregabalin.” for “of desipramine.”, “27°” for “4°”, “Tris-HCl,” for “Tris-HCl, 0.9% NaCl,”
Filter plates were dried at 60° C. for 1 hour and 30 μL of scintillation cocktail were added to each well before radioactivity reading. Readings were performed in a Trilux 1450 Microbeta radioactive counter (Perkin Elmer).

Human norepinephrine transporter (NET), sequence (P23975 whole entry): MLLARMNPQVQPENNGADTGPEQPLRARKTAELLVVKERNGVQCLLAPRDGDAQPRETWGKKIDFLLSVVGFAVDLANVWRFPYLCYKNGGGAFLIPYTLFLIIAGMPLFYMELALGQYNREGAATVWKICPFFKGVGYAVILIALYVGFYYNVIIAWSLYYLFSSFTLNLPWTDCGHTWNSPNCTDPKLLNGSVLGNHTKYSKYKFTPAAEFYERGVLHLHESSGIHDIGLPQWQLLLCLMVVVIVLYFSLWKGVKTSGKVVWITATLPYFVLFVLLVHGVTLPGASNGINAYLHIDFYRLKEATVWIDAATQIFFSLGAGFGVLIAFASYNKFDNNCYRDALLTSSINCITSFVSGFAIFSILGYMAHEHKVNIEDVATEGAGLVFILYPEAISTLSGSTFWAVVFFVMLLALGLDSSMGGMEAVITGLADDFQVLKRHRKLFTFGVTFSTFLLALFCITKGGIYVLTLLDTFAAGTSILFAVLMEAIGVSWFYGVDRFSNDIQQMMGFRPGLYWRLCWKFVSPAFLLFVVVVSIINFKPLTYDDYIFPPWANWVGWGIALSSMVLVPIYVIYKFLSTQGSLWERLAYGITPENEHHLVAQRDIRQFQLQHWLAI

SMILES	Ki [1] [nM]	Ki [2] [nM]
CCOc1ccc(-n2nc3c(N4CC[C@H](NCc5ccccn5)C4)nnc(C)c3c2C)c(F)c1 [Example 4, (S)-1-(2-(4-ethoxy-2-fluorophenyl)-3,4-dimethyl-2H-pyrazolo[3,4-d]pyridazin-7-yl)-N-(pyridin-2-ylmethyl)pyrrolidin-3-amine]	≥ 1000	< 500
CCOc1ccc(-n2nc3c(N4CC[C@H](NCCc5ccc(F)cc5)C4)nnc(C)c3c2C)c(F)c1 [Example 5, (S)-1-(2-(4-ethoxy-2-fluorophenyl)-3,4-dimethyl-2H-pyrazolo[3,4-d]pyridazin-7-yl)-N-(4-fluorophenethyl)pyrrolidin-3-amine]	≥ 1000	< 500
CCOc1ccc(-n2nc3c(N4CC[C@H](NCc5cccc(OC)c5)C4)nnc(C)c3c2C)c(F)c1 [Example 6, (S)-1-(2-(4-ethoxy-2-fluorophenyl)-3,4-dimethyl-2H-pyrazolo[3,4-d]pyridazin-7-yl)-N-(3-methoxybenzyl)pyrrolidin-3-amine]	500 to 1000	< 500
CCOc1ccc(-n2nc3c(N4CC[C@H](NCc5cccnc5)C4)nnc(C)c3c2C)c(F)c1 [Example 11, (S)-1-(2-(4-ethoxy-2-fluorophenyl)-3,4-dimethyl-2H-pyrazolo[3,4-d]pyridazin-7-yl)-N-(pyridin-3-ylmethyl)pyrrolidin-3-amine]	500 to 1000	< 500
CCOc1ccc(-n2nc3c(N4CC[C@H](NCc5ccncc5)C4)nnc(C)c3c2C)c(F)c1 [Example 12, (S)-1-(2-(4-ethoxy-2-fluorophenyl)-3,4-dimethyl-2H-pyrazolo[3,4-d]pyridazin-7-yl)-N-(pyridin-4-ylmethyl)pyrrolidin-3-amine]	≥ 1000	< 500
CCOc1ccc(-n2nc3c(N4CC[C@H](NCc5ncccc5F)C4)nnc(C)c3c2C)c(F)c1 [Example 13, (S)-1-(2-(4-ethoxy-2-fluorophenyl)-3,4-dimethyl-2H-pyrazolo[3,4-d]pyridazin-7-yl)-N-((3-fluoropyridin-2-yl)methyl)pyrrolidin-3-amine]	500 to 1000	< 500
CCOc1ccc(-n2nc3c(N4CC[C@H](NCc5cncc(F)c5)C4)nnc(C)c3c2C)c(F)c1 [Example 14, (S)-1-(2-(4-ethoxy-2-fluorophenyl)-3,4-dimethyl-2H-pyrazolo[3,4-d]pyridazin-7-yl)-N-((5-fluoropyridin-3-yl)methyl)pyrrolidin-3-amine]	≥ 1000	≥ 5000
CCOc1ccc(-n2nc3c(N4CC[C@H](N(C)Cc5cccc(O)c5)C4)nnc(C)c3c2C)c(F)c1 [Example 15, (S)-3-(((1-(2-(4-Ethoxy-2-fluorophenyl)-3,4-dimethyl-2H-pyrazolo[3,4-d]pyridazin-7-yl)pyrrolidin-3-yl)(methyl)amino)methyl)phenol]	≥ 1000	< 500
CCOc1ccc(-n2nc3c(N4CC[C@H](N(C)Cc5ccccc5)C4)nnc(C)c3c2C)c(F)c1 [Example 16, (S)-N-benzyl-1-(2-(4-ethoxy-2-fluorophenyl)-3,4-dimethyl-2H-pyrazolo[3,4-d]pyridazin-7-yl)-N-methylpyrrolidin-3-amine]	500 to 1000	< 500
CCOc1ccc(-n2nc3c(N4CCC[C@H](N(C)C)C4)nnc(C)c3c2C)c(F)c1 [Example 17, (S)-1-(2-(4-ethoxy-2-fluorophenyl)-3,4-dimethyl-2H-pyrazolo[3,4-d]pyridazin-7-yl)-N,N-dimethylpiperidin-3-amine]	≥ 1000	500 to 5000
CCOc1ccc(-n2nc3c(N4CC[C@H](NC(=O)Cc5ccccn5)C4)nnc(C)c3c2C)c(F)c1 [Example 18, (S)-N-(1-(2-(4-Ethoxy-2-fluorophenyl)-3,4-dimethyl-2H-pyrazolo[3,4-d]pyridazin-7-yl)pyrrolidin-3-yl)-2-(pyridin-2-yl)acetamide]	≥ 1000	< 500
CCOc1ccc(-n2nc3c(N4CC[C@H](NC(=O)Cc5cccnc5)C4)nnc(C)c3c2C)c(F)c1 [Example 19, (S)-N-(1-(2-(4-ethoxy-2-fluorophenyl)-3,4-dimethyl-2H-pyrazolo[3,4-d]pyridazin-7-yl)pyrrolidin-3-yl)-2-(pyridin-3-yl)acetamide]	≥ 1000	< 500

Results, then the molecule that gave them:

Ki [1] [nM]	Ki [2] [nM]	SMILES
100 to 500	< 500	CCOc1ccc(-n2nc3c(N4CC[C@H](NCc5ccccc5)C4)nnc(C)c3c2C)c(F)c1 [Example 1, (S)-N-Benzyl-1-(2-(4-ethoxy-2-fluorophenyl)-3,4-dimethyl-2H-pyrazolo[3,4-d]pyridazin-7-yl)pyrrolidin-3-amine]
500 to 1000	< 500	CCOc1ccc(-n2nc3c(N4CC[C@H](NCCc5ccccc5)C4)nnc(C)c3c2C)c(F)c1 [Example 2, (S)-1-(2-(4-ethoxy-2-fluorophenyl)-3,4-dimethyl-2H-pyrazolo[3,4-d]pyridazin-7-yl)-N-phenethylpyrrolidin-3-amine]
100 to 500	< 500	CCOc1ccc(-n2nc3c(N4CC[C@H](NCc5cccc(O)c5)C4)nnc(C)c3c2C)c(F)c1 [Example 3, (S)-3-(((1-(2-(4-ethoxy-2-fluorophenyl)-3,4-dimethyl-2H-pyrazolo[3,4-d]pyridazin-7-yl)pyrrolidin-3-yl)amino)methyl)phenol]
< 100	< 500	CCOc1ccc(-n2nc3c(N4CC[C@H](NCc5ccc(F)c(F)c5)C4)nnc(C)c3c2C)c(F)c1 [Example 7, (S)-N-(3,4-difluorobenzyl)-1-(2-(4-ethoxy-2-fluorophenyl)-3,4-dimethyl-2H-pyrazolo[3,4-d]pyridazin-7-yl)pyrrolidin-3-amine]
100 to 500	< 500	CCOc1ccc(-n2nc3c(N4CC[C@@H](NCc5cccc(O)c5)C4)nnc(C)c3c2C)c(F)c1 [Example 8, (R)-3-(((1-(2-(4-ethoxy-2-fluorophenyl)-3,4-dimethyl-2H-pyrazolo[3,4-d]pyridazin-7-yl)pyrrolidin-3-yl)amino)methyl)phenol]
100 to 500	< 500	CCOc1ccc(-n2nc3c(N4CC[C@H](NCc5ccccc5O)C4)nnc(C)c3c2C)c(F)c1 [Example 9, (S)-2-(((1-(2-(4-ethoxy-2-fluorophenyl)-3,4-dimethyl-2H-pyrazolo[3,4-d]pyridazin-7-yl)pyrrolidin-3-yl)amino)methyl)phenol]
100 to 500	< 500	CCOc1ccc(-n2nc3c(N4CC[C@@H](NCc5ccccc5)C4)nnc(C)c3c2C)c(F)c1 [Example 10, (R)-N-benzyl-1-(2-(4-ethoxy-2-fluorophenyl)-3,4-dimethyl-2H-pyrazolo[3,4-d]pyridazin-7-yl)pyrrolidin-3-amine]

Source: patent US20200062767A1, “SUBSTITUTED PYRROLIDINYL AND PIPERIDINYL PYRAZOLOPYRIDAZINE DERIVATIVES HAVING MULTIMODAL ACTIVITY AGAINST PAIN” (ESTEVE PHARMACEUTICALS, S.A., priority 2017, published 2020)
